# According to patent publication US6624193B1, “Preventive and therapeutic agents for eye diseases” (Ono Pharmaceutical Co., Ltd., priority 1999, dated 2003):
# Counter-ions that a name gives are not always drawn.
# Assays:
# [1] = system: Pseudomonas aeruginosa strain No. ho-134 corneal ulcer; assay: Effects on pyocyanic corneal ulcer (inoculation of Pseudomonas aeruginosa into corneal stroma, corneal ulcer score); type: in vivo, rabbit; details: 50 μl four times a day
# Description: Male Japanese albino rabbits each weighing about 2 kg purchased from KITAYAMA LABE S CO., LTD. were used. Each animal was maintained at a temperature of 23±3° C. and a humidity of 55±10%.
# Compound A was given as a 1.0% Compound A eye drop formulation prepared by suspending Compound A in a formulation base (0.1% sodium acetate, 0.1% polysorbate 80 and 0.9% NaCl, pH 5.0). A 0.3% lomefloxacin (LFLX) hydrochloride was used as an. is antibacterial agent, and physiological saline *was used as a control.
# After instilling 0.4% oxybuprocaine hydrochloride for a local anesthesia, a nictitating membrane was excised.
# A causative microorganism used was a clinical isolate Pseudomonas aeruginosa strain No. ho-134. A rabbit was anesthetized systemically with 5% ketamine hydrochloride and 2% xylazine hydrochloride (equal volume mixture), and then inoculated by an infusion of 30 μl of a 3.9×10^4 CFU/ml cell suspension (1.17×10^3 CFU/cornea) using a 100 μl microsyringe fitted with a 30G needle into one corneal stroma of a rabbit.
# An animal which had received an infusion of the cell suspension into the corneal stroma and whose inoculation was surely successful was grouped into one of [1] physiological saline instillation group (control, n=6) and [2]1.0% Compound A instillation group (Compound A group, n=6) as groups whose therapy was started immediately after the inoculation, and [3]1.0% Compound A instillation group (late Compound A group, n=5), [4]0.3% LFLX instillation group (LFLX group, n=6) and [5]1.0% Compound A instillation—0.3% LFLX instillation combination group (Compound A—LFLX combination group, n=6) as groups whose therapy was started 1 day after the inoculation (after onset of corneal ulcer), and 50 μl of each substance was given four times a day immediately after the inoculation or 1 day after the inoculation (after onset of corneal ulcer). […]
# Each animal was examined for the corneal ulcer every 24 hours after the inoculation and scored in accordance with the rabbit corneal lesion scoring criteria (Barletta J. P. et al., Invest Ophthalmol Vis Sic 37:20-28, 1996) shown in Table 2. […]
# [2] = system: Pseudomonas aeruginosa-derived endotoxin-induced keratitis; assay: Effect on endotoxin-induced keratitis (rabbit keratitis model, slit lamp scoring); type: in vivo
# Description: (§1) The effect of Compound A when given as eye drops was investigated in a rabbit keratitis model using an endotoxin derived from Pseudomonas aeruginosa detected frequently in an ophthalmic infection as well as in a rabbit corneal alkaline erosion model.
# (§2) Male Japanese albino rabbits each weighing about 2 to 2.5 kg purchased from FUKUZAKI rabbit-raising association were used. Each animal was maintained at a temperature of 24±4° C. and a humidity of 55±15%.
# (§3) Compound A was given as a 1.0% Compound A eye drop formulation prepared by suspending Compound A in a formulation base (0.1% NaH2PO4, 0.1% polysorbate 80 and 0.9% NaCl, pH 5.0). As a positive control, a 0.1% betamethasone eye drop formulation (Rinderon™ solution, Sionogi) was used. In a control group, the formulation base was given.
# 16 Male Japanese albino rabbits each weighing 2 to 2.5 kg were used. The rabbits were divided into four groups each having 4 animals, which were anesthetized systemically by an intramuscular administration each of 1 ml/kg of an equal volume mixture of 5% ketamine hydrochloride and 2% xylazine hydrochloride. Each 10 μl of a 1% solution of Pseudomonas aeruginosa-derived endotoxin in physiological saline was infused into each corneal stroma of a rabbit. An anterior part of an eye was observed using a slit lamp every 5 days over a period from the day after the endotoxin infusion through the 30th day, and examined for the corneal opacity, the corneal ulcer and the vascularization, which were scored in accordance with the criteria shown in Table 1. Each test substance was started to be instilled immediately after the endotoxin infusion, and then given 4 times a day in the volume of 20 μl every 2 hours.
# (§4) Rabbit Keratitis Scoring Criteria
# (§5) Corneal opacity^remarks 1)
# (§6) * Vascularization^remarks 1)
# (§7) 2: ⅔ or more of corneal circumference Remarks 1) Each as score A x score B
# [3] = system: alkaline erosive keratitis; assay: Effects on alkaline erosive keratitis (rabbit corneal alkaline erosion model, slit lamp scoring); type: in vivo
# Description: as §1, §2, §3
# 16 Male Japanese albino rabbits each weighing 2 to 2.5 kg were used. The rabbits were divided into four groups each having 4 animals, which were anesthetized systemically by an intramuscular administration each of 1 ml/kg of an equal volume mixture of 5% ketamine hydrochloride and 2% xylazine hydrochloride and also locally by an instillation of oxybuprocaine hydrochloride. A filter paper whose diameter was 10 mm and which had been immersed in 2N NaOH was brought into contact with the center of the right cornea of a rabbit for 1 minute to establish an alkaline erosion, and then the eye was rinsed immediately with 10 mL or more of physiological saline. The depth of the corneal ulcer and the vascularization were observed using a slit lamp every 5 days over a period from 5 days after the alkaline erosion through the 30th day, and scored in accordance with the criteria shown in Table 1. Each test substance was started to be instilled immediately after the alkaline erosion, and then given 4 times a day in the volume of 20 μl every 2 hours.
# as §4, §5, §6, §7
# [4] = instillation started 1 day after the inoculation (after onset of corneal ulcer), vs physiological saline (FIG. 9)
smiles,measurement,setting,value
"CCn1cc(C(=O)O)c(=O)c2cc(F)c(N3CCNC(C)C3)c(F)c21 (stereo not drawn) [LFLX, lomefloxacin (LFLX) hydrochloride, reference compound]",corneal ulcer formation,[1]; [4],no inhibition of the corneal ulcer formation
"C[C@H]1C[C@H]2[C@@H]3CCC4=CC(=O)C=C[C@]4(C)[C@@]3(F)[C@@H](O)C[C@]2(C)[C@@]1(O)C(=O)COP(=O)(O)O [betamethasone phosphate, reference compound]",onset of the keratitis,"[2]; over the observation period (5 to 30 days), 0.1% eye drop, 4 times a day, positive control",inhibited almost completely
same,effect on vascularization,"[3]; 15th day after corneal alkaline exposure, 0.1% eye drop, 4 times a day, positive control",significant inhibitory effect
"CC(C)(C)C(=O)Oc1ccc(S(=O)(=O)Nc2ccccc2C(=O)NCC(=O)[O-])cc1.O.O.O.O.[Na+] [Compound A, N-[o-(p-pivaloyloxybenzenesulfonyl-amino)benzoyl]glycine monosodium salt tetrahydrate]",effect on corneal opacity,"[2]; 5 to 30 days after endotoxin infusion, 1.0% eye drop, 4 times a day, vs control group (FIG. 1)",inhibitory effects were observed
same,effect on corneal ulcer,"[2]; 5 to 30 days after endotoxin infusion, 1.0% eye drop, 4 times a day, vs control group (FIG. 2)",inhibitory effects were observed
same,effect on vascularization,"[2]; 5 to 30 days after endotoxin infusion, 1.0% eye drop, 4 times a day, vs control group (FIG. 3)",inhibitory effects were observed
same,% inhibition of total keratitis score compared with the control group,"[2]; 15th day after endotoxin infusion, 1.0% eye drop, 20 μl 4 times a day, statistically significant difference (FIG. 4)",59.4%
same,effect on corneal opacity,"[3]; 5 to 30 days after corneal alkaline exposure, 1.0% eye drop, 4 times a day (FIG. 5)",no effects were noted
same,effect on vascularization,"[3]; 5 to 30 days after corneal alkaline exposure, 1.0% eye drop, 4 times a day (FIG. 7)",no effects were noted
same,effect on corneal ulcer,"[3]; 20th day after corneal alkaline exposure, 1.0% eye drop, 4 times a day (FIG. 6)",significant inhibitory effect
same,corneal ulcer formation,[1]; [4],corneal ulcer formation was started to be inhibited 3 days after the inoculation
same,corneal ulcer formation,"[1]; instillation started immediately after the inoculation, vs physiological saline, statistically significant difference (FIG. 8)",corneal ulcer formation was started to be inhibited 3 days after the inoculation
